test system: H1299, H1650 and MCF-7 cells; test: BrdU proliferation assay, statements for all three cell lines; assay type: cell-based, human; conditions: 5 μM cisplatin, 5 μM paclitaxel or 10 μM gefitinib
Method: FIGS. 5A-5C show the combined effect of chemotherapeutic drugs and Glut-1 antibody on cell proliferation. H1299 (FIG. 5A), H1650 (FIG. 5B), and MCF-7 (FIG. 5C) cells were grown on chamber slides as described above and treated either with cisplatin, paclitaxel or iressa in presence or absence of Glut-1 antibody (0.1 mg) for 18 hours. The proliferation was measured by BrdU incorporation.
MCF-7, H1299 and H1650 cells were plated onto poly-D-lysine (Sigma) coated 8-well glass chamber slides (10,000 cells per well). The cells were incubated with 0.1 mg/ml Glut-1 monoclonal antibody for 18 hours. The cells were fixed and stained using 5-Bromo-2′ deoxyuridine labeling and detection kit from ROCHE according to manufacturer's protocol.
Experiments were done to evaluate whether anti-Glut-1 antibody could synergize with standard chemotherapeutic agents to inhibit proliferation of H1299, H1650 and MCF-7. The cells were plated on chamber slides and incubated in presence of chemotherapeutic agents (5 μM cisplatin, 5 μM paclitaxel or 10 μM geftinib) in absence or presence of 0.1 mg/ml anti-Glut-1 antibody.

Row | Compound | effect of drug alone on proliferation
1 | N.N.[Cl][Pt][Cl] [cisplatin] | significant decrease in proliferation
2 | COc1cc2ncnc(Nc3ccc(F)c(Cl)c3)c2cc1OCCCN1CCOCC1 [gefitinib] | significant decrease in proliferation
3 | CC(=O)O[C@H]1C(=O)[C@@]2(C)[C@H]([C@H](OC(=O)c3ccccc3)[C@]3(O)C[C@H](OC(=O)[C@H](O)[C@@H](NC(=O)c4ccccc4)c4ccccc4)C(C)=C1C3(C)C)[C@]1(OC(C)=O)CO[C@@H]1C[C@@H]2O [paclitaxel] | significant decrease in proliferation
